Assay results taken from patent US10144742B2 (Millennium Pharmaceuticals, Inc., priority 2014, dated 2018).
Read-outs that look alike come from different tables or passages of the source.

Key:
[1] = tested on: PC3 cells; experiment: PC3 growth inhibition (Cell-titer glo, 72 hours); type: cell-based; conditions: Homo sapiens, read-out: Percent Inhibition (PC3 growth inhibition); for inhibition at 1.667 µM: compound concentration 1.667 μM
Outline: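 PC3 cells in RPMI1640 seeded overnight at 37 °C, 5% CO2, then exposed to compound diluted in AIM serum-free medium for 72 h. Viability by CellTiter-Glo luminescence vs DMSO controls; single-concentration % remaining viability (1 μM or 1.667 μM), or GI50/LD50 from curves.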

[2] = target: hNAMPT protein (Homo sapiens (Human), UniProt P43490); experiment: NAMPT enzyme assay (TR-FRET/HTRF, BodiPY ligand, anti 6His-Tb); type: binding; conditions: for inhibition at 1 µM: read-out: Percent Inhibition
Sequence of hNAMPT protein (P43490 whole entry): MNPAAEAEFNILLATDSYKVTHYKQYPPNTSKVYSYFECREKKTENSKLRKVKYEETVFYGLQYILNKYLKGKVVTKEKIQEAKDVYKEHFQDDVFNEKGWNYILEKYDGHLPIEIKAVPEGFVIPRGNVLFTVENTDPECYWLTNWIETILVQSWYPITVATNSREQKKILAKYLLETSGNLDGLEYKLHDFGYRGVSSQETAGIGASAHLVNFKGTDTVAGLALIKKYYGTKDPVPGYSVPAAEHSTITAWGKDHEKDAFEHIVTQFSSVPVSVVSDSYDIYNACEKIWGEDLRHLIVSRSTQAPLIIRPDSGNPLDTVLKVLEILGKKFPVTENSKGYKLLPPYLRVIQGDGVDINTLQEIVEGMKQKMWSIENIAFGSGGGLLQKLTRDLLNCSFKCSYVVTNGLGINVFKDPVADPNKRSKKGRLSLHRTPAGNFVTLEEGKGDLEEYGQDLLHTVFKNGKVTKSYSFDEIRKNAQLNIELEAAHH
Outline: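 TR-FRET binding assay in which His-tagged human NAMPT with anti-6His-Tb is displaced by compound from a BodiPY ligand, incubated 1 h at rt in the dark. Excitation was at 320 nm, with the 520/486 nm emission ratio read. IC50 was fitted from inhibition relative to DMSO controls.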

[3] = PC-3, compound concentration 1 μM, PC3 cells, 72 hours, Cell-titer glo
[4] = NAMPT IC50 range class, read-out: IC50
[5] = PC-3, PC3 cells, 72 hours, Cell-titer glo
[6] = NAMPT inhibition at compound concentration 1 μM
[7] = NAMPT inhibition, IC50 range class, read-out: IC50

Structure (SMILES)	inhibition at 1 µM [1, 3]	IC50 [2, 4]	inhibition at 1 µM ([2]; compound concentration 1 μM)	inhibition at 1.667 µM [1, 5]	other results
O=C(NCCCn1ccnc1)c1ccc2nc(-c3ccco3)c(-c3ccco3)nc2c1 [Compound I-107, 2,3-di(2-furyl)-N-[3-(1H-imidazol-1-yl)propyl]quinoxaline-6-carboxamide]	102%	1000 to 2000 nM	47%		
Cc1ccc(C)c(-c2nc3cc(C(=O)NCCCc4ncc[nH]4)ccc3nc2-c2ccc(F)cc2)c1 [Compound I-450, 3-(2,5-dimethylphenyl)-2-(4-fluorophenyl)-N-[3-(1H-imidazol-2-yl)propyl]quinoxaline-6-carboxamide]				1%	inhibition at 1 µM [2, 6]: 93%; IC50 [2, 7]: < 100 nM
CS(=O)(=O)Nc1cccc(-c2nc3ccc(C(=O)NCCCn4ccnc4)cc3nc2-c2ccccc2)c1 [Compound I-290, N-[3-(1H-imidazol-1-yl)propyl]-2-{3-[(methylsulfonyl)amino]phenyl}-3-phenylquinoxaline-6-carboxamide]	-8%	100 to 500 nM	81%		
O=C(NCCCn1ccnc1)c1ccc2nc(CN3CCOCC3)c(-c3ccccc3)nc2c1 [Compound I-88, N-[3-(1H-imidazol-1-yl)propyl]-2-(morpholin-4-ylmethyl)-3-phenylquinoxaline-6-carboxamide]	-7%	1000 to 2000 nM	41%		
O=C(NCCCn1ccnc1)c1ccc2nc(-c3ccccc3)c(N3CCOCC3)nc2c1 [Compound I-144, N-[3-(1H-imidazol-1-yl)propyl]-3-(morpholin-4-yl)-2-phenylquinoxaline-6-carboxamide]	2%	1000 to 2000 nM	43%		
COc1cccc(-c2nc3cc(C(=O)NCCc4cccnc4)ccc3nc2N2CCC(N3CCOCC3)CC2)c1 [Compound I-291, 3-(3-Methoxyphenyl)-2-[4-(morpholin-4-yl)piperidin-1-yl]-N-[2-(pyridin-3-yl)ethyl]quinoxaline-6-carboxamide]		< 100 nM	98%	2%	
O=C(NCCCc1ncc[nH]1)c1ccc2nc(OCCc3cnoc3)c(-c3ccc(F)cc3)nc2c1 [Compound I-390, 3-(4-fluorophenyl)-N-[3-(1H-imidazol-2-yl)propyl]-2-[2-(isoxazol-4-yl)ethoxy]quinoxaline-6-carboxamide]		< 100 nM	99%	2%	
O=C(NCCCc1ncc[nH]1)c1ccc2nc(C3=CCOCC3)c(-c3cccs3)nc2c1 [Compound I-300, 2-(3,6-dihydro-2H-pyran-4-yl)-N-[3-(1H-imidazol-2-yl)propyl]-3-(2-thienyl)quinoxaline-6-carboxamide]		< 100 nM	> 99%	32%	
O=C(NCCCc1ncc[nH]1)c1ccc2nc(-c3ccc(F)cc3)c(-c3cc4ccccc4s3)nc2c1 [Compound I-412, 3-(1-benzothiophen-2-yl)-2-(4-fluorophenyl)-N-[3-(1H-imidazol-2-yl)propyl]quinoxaline-6-carboxamide]				6%	inhibition at 1 µM [2, 6]: 96%; IC50 [2, 7]: 100 to 500 nM
COc1cccc(-c2nc3cc(C(=O)NCCCc4ncc[nH]4)ccc3nc2-c2ccc(F)cc2)c1 [Compound I-484, 2-(4-fluorophenyl)-N-[3-(1H-imidazol-2-yl)propyl]-3-(3-methoxyphenyl)quinoxaline-6-carboxamide]				2%	inhibition at 1 µM [2, 6]: 99%; IC50 [2, 7]: < 100 nM
O=C(NCCCc1ncc[nH]1)c1ccc2nc(N3CC4(CCOCC4)C3)c(-c3ccc(F)cc3)nc2c1 [Compound I-288, 3-(4-fluorophenyl)-N-[3-(1H-imidazol-2-yl)propyl]-2-(7-oxa-2-azaspiro[3.5]non-2-yl)quinoxaline-6-carboxamide]		< 100 nM	> 99%	2%	
O=C(NCCCc1ncc[nH]1)c1ccc2nc(-c3ccc(F)cc3)c(-c3cc(F)ccc3F)nc2c1 [Compound I-319, 3-(2,5-difluorophenyl)-2-(4-fluorophenyl)-N-[3-(1H-imidazol-2-yl)propyl]quinoxaline-6-carboxamide]		< 100 nM	94%	3%	
CCOC(=O)CCc1ccc(-c2nc3cc(C(=O)NCCCn4ccnc4)ccc3nc2-c2ccccc2)cc1 [Compound I-171, ethyl 3-[4-(7-{[3-(1H-imidazol-1-yl)propyl]carbamoyl}-3-phenylquinoxalin-2-yl)phenyl]propanoate]	95%	2000 to 10000 nM	27%		
O=C(NCCCn1ccnc1)c1ccc2nc(Nc3ccccc3)c(-c3ccccc3)nc2c1 [Compound I-233, 2-Anilino-N-[3-(1H-imidazol-1-yl)propyl]-3-phenylquinoxaline-6-carboxamide]					inhibition at 1 µM ([1]; PC-3, 72 h): -8%; IC50 [2]: 2000 to 10000 nM; inhibition at 1 µM [2]: 43%
CCOc1ccc(F)c(-c2nc3cc(C(=O)NCCCc4ncc[nH]4)ccc3nc2-c2ccc(F)cc2)c1 [Compound I-343, 3-(5-ethoxy-2-fluorophenyl)-2-(4-fluorophenyl)-N-[3-(1H-imidazol-2-yl)propyl]quinoxaline-6-carboxamide]		100 to 500 nM	82%	1%	
O=C(NCCCn1ccnc1)c1ccc2nc(N3CCCC(O)C3)c(-c3ccccc3)nc2c1 (stereo not drawn) [Compound I-100, 2-(3-hydroxypiperidin-1-yl)-N-[3-(1H-imidazol-1-yl)propyl]-3-phenylquinoxaline-6-carboxamide]	-7%	100 to 500 nM	85%		
COc1nccc(-c2nc3cc(C(=O)NCCCc4ncc[nH]4)ccc3nc2-c2ccc(F)cc2)c1F [Compound I-391, 3-(3-fluoro-2-methoxypyridin-4-yl)-2-(4-fluorophenyl)-N-[3-(1H-imidazol-2-yl)propyl]quinoxaline-6-carboxamide]		100 to 500 nM	83%	3%	
COc1cccc(-c2nc3cc(C(=O)NCCc4cccnc4)ccc3nc2N2CCCCC2)c1 [Compound I-196, 3-(3-methoxyphenyl)-2-(piperidin-1-yl)-N-[2-(pyridin-3-yl)ethyl]quinoxaline-6-carboxamide]		< 100 nM	98%	2%	
COc1cccc(-c2nc3cc(C(=O)NCCCc4ncc[nH]4)ccc3nc2N2CCC(N3CCOCC3)CC2)c1 [Compound I-91, N-[3-(1H-imidazol-2-yl)propyl]-3-(3-methoxyphenyl)-2-[4-(morpholin-4-yl)piperidin-1-yl]quinoxaline-6-carboxamide]		< 100 nM	99%	2%	
O=C(NCCCc1ncc[nH]1)c1ccc2nc(-c3ccc(F)cc3)c(-c3ccc(Cl)c(F)c3)nc2c1 [Compound I-431, 3-(4-chloro-3-fluorophenyl)-2-(4-fluorophenyl)-N-[3-(1H-imidazol-2-yl)propyl]quinoxaline-6-carboxamide]				2%	inhibition at 1 µM [2, 6]: 90%; IC50 [2, 7]: 100 to 500 nM
CC(Oc1nc2ccc(C(=O)NCCCc3ncc[nH]3)cc2nc1-c1ccc(F)cc1)c1ccccc1 (stereo not drawn) [Compound I-349, 3-(4-fluorophenyl)-N-[3-(1H-imidazol-2-yl)propyl]-2-(1-phenylethoxy)quinoxaline-6-carboxamide]		< 100 nM	91%	3%	
COc1ccc(-c2nc3cc(C(=O)NCCCc4ncc[nH]4)ccc3nc2-c2ccc(F)cc2)c(F)c1 [Compound I-415, 3-(2-fluoro-4-methoxyphenyl)-2-(4-fluorophenyl)-N-[3-(1H-imidazol-2-yl)propyl]quinoxaline-6-carboxamide]				2%	inhibition at 1 µM [2, 6]: 75%; IC50 [2, 7]: 100 to 500 nM
O=C(NCCc1ccccn1)c1ccc2nc(-c3ccc(F)cc3)c(-c3ccc(F)cc3)nc2c1 [Compound I-169, 2,3-bis(4-fluorophenyl)-N-[2-(pyridin-2-yl)ethyl]quinoxaline-6-carboxamide]	93%	1000 to 2000 nM	36%		
O=C(NCCCn1ccnc1)c1ccc2nc(-c3ccccc3Cl)c(-c3ccccc3)nc2c1 [Compound I-257, 2-(2-chlorophenyl)-N-[3-(1H-imidazol-1-yl)propyl]-3-phenylquinoxaline-6-carboxamide]	-8%	100 to 500 nM	77%		
Cc1ccsc1-c1nc2cc(C(=O)NCCCc3ncc[nH]3)ccc2nc1-c1ccc(F)cc1 [Compound I-342, 2-(4-fluorophenyl)-N-[3-(1H-imidazol-2-yl)propyl]-3-(3-methyl-2-thienyl)quinoxaline-6-carboxamide]		< 100 nM	89%	3%	
C[C@@H]1CN(c2nc3cc(C(=O)NCCCn4ccnc4)ccc3nc2-c2ccccc2)C[C@H](C)O1 [Compound I-34, cis-3-[(2R,6S)-2,6-dimethylmorpholin-4-yl]-N-[3-(1H-imidazol-1-yl)propyl]-2-phenylquinoxaline-6-carboxamide]	-6%	1000 to 2000 nM	47%		
O=C(NCCCc1ncc[nH]1)c1ccc2nc(N3CCC(O)CC3)c(-c3ccc(Cl)cc3)nc2c1 [Compound I-298, 3-(4-chlorophenyl)-2-(4-hydroxypiperidin-1-yl)-N-[3-(1H-imidazol-2-yl)propyl]quinoxaline-6-carboxamide]		< 100 nM	> 99%	2%	
